{"source": "patent US8940325B2", "about": "“Use of synthetic polysulphated oligosaccharides as cleaning agents for a wound” (Laboratories Urgo, priority 2010, dated 2015)", "target": "T1, fibrin matrix (Homo sapiens, UniProt P02671+P02675+P02679)", "T1 construct": "15 mg of human plasma fibrinogen (Sigma-Aldrich Catalog); purchased Sigma-Aldrich; host or cells: human plasma", "T1 sequence (P02671 20-644 isoform P02671-2 limits assumed)": "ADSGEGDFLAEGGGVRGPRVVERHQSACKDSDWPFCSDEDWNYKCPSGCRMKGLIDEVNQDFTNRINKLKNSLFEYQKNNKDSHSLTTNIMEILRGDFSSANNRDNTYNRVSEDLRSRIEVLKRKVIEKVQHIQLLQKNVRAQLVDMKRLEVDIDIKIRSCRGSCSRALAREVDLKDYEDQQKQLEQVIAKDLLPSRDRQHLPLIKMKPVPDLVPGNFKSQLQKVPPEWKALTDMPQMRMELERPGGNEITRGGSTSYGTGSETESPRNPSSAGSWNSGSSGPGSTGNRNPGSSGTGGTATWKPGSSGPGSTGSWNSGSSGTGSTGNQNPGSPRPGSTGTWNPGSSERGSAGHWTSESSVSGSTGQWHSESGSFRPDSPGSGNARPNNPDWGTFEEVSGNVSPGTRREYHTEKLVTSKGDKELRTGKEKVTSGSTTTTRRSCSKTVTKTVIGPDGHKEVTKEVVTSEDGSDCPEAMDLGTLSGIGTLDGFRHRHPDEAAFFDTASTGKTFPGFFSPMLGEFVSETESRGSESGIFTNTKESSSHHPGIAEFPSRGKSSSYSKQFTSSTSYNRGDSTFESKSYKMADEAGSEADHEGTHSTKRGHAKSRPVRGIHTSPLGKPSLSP", "T1 sequence (P02675 45-491 limits assumed)": "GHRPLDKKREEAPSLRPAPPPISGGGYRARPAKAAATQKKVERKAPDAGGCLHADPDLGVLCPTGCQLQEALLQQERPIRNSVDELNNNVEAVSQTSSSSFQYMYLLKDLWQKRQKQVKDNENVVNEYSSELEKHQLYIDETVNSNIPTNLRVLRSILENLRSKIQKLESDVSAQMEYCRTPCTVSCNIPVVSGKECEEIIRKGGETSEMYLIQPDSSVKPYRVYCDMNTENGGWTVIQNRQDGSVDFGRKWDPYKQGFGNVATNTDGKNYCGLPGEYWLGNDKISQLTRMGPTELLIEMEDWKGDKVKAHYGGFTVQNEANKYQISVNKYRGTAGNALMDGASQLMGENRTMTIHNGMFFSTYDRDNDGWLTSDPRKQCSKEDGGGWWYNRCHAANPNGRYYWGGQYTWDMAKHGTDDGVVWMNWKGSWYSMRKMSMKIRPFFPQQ", "T1 sequence (P02679 27-437 isoform P02679-2 limits assumed)": "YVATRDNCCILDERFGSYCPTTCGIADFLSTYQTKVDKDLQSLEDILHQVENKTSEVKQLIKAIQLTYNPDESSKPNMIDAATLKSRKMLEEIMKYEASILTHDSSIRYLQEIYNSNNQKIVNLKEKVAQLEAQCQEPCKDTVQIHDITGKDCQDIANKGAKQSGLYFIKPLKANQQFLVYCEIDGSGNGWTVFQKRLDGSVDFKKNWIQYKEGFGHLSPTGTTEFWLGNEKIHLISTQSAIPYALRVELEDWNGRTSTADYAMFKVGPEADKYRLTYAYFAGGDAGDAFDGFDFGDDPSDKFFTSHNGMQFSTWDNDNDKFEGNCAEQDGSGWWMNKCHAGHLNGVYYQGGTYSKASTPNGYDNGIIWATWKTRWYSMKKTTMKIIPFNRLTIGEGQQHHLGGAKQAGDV", "test": "Degradation of fibrin matrix prepared in vitro (visual observation and PDF determination)", "format": "biochemical", "conditions": "solution at 10 g/l, 48 hours", "procedure": "The fibrin matrices were prepared according to Brown's protocol described in the work “Fibroblast migration in fibrin gel matrices” Am J. Pathol, 1993, 142: 273-283.\nThe following were dissolved at 37° C.: • 5 ml of an aqueous solution comprising 50 millimoles of Hepes (Sigma-Aldrich Catalog) • 15 mg of human plasma fibrinogen (Sigma-Aldrich Catalog) • 5 millimoles of CaCl2.\n50 μl of thrombin, 100 NIH of human plasma (Sigma-Aldrich Catalog) were added to the solution thus prepared.\nThe reaction mixture was mixed, put in a 15-ml tube (or a Petri dish of 60 mm diameter) and then left to incubate at 37° C.\nDuring the first 24 hours of incubation at 37° C., a fibrin matrix which has roughly the appearance of a gel was seen to appear.\nIn parallel, a control solution was prepared free from the test compound with phosphate-buffered saline (PBS).\nThe degradation of the fibrin matrix was monitored visually over the next 24 and 48 hours. […]\nIn order to quantify and verify that the observations made do indeed correspond to degradation of the fibrin matrix, the products of degradation of fibrin (PDFs) were determined 24 hours or 48 hours after adding the solutions of the test compound. […]\nThis solution was tested according to the protocol described above and the PDFs were measured 48 hours after adding the solution to the fibrin matrix. […]", "data": [{"smiles": "O=S(=O)([O-])OC[C@H]1O[C@@](COS(=O)(=O)[O-])(O[C@H]2O[C@H](COS(=O)(=O)[O-])[C@@H](OS(=O)(=O)[O-])[C@H](OS(=O)(=O)[O-])[C@H]2OS(=O)(=O)[O-])[C@@H](OS(=O)(=O)[O-])[C@@H]1OS(=O)(=O)[O-].[K+].[K+].[K+].[K+].[K+].[K+].[K+].[K+]", "note": "[potassium salt of sucrose octasulfate]", "values": [{"measurement": "degradation of the fibrin matrix (level)", "result": "partial degradation (if the value of the PDFs, expressed in μg/ml, is between 5 and 20, there is partial degradation of the fibrin matrix)"}]}]}
